According to US20170312282A1, “TYROSINE KINASE INHIBITOR FORMULATIONS FOR THE TREATMENT OF MAST CELL-MEDIATED INFLAMMATORY DISEASES AND METHODS OF USE THEREOF” (The Board of Trustees of the Leland Stanford Junior …, priority 2016, published 2017):

Tests used:
[1] = tested on: DMM-induced OA; test: Systemic imatinib in DMM model of OA (Example 5); format: in vivo, mice; settings: 33 mg/kg/day or 100 mg/kg, orally twice-daily for 12 weeks starting one day after DMM surgery
[2] = tested on: FLT3, KIT, MET, RET, VEGFR2; settings: one bound for FLT3, KIT; cited from earlier work
[3] = tested on: tie2, pdgfrs, ret, kit, B-RAF; settings: one bound for tie2, pdgfrs; cited from earlier work
[4] = tested on: allergic rhinorrhea; settings: intranasal dosing; cited from earlier work
[5] = tested on: allergic rhinitis; settings: phase II clinical trial for allergic rhinitis; cited from earlier work
[6] = tested on: ABL, KIT, PDGFRs, DDRs; settings: read-out: IC50 (nM/L), one bound for ABL; cited from earlier work
[7] = tested on: VEGFRs, PDGFRs, B-RAF, MEK, ERK, c-FMS; settings: one bound for VEGFRs; cited from earlier work

Question: Which “development of DMM-induced OA (histological scores of cartilage damage, synovitis and osteophyte formation)” value [1] does the source give for Cc1ccc(NC(=O)c2ccc(CN3CCN(C)CC3)cc2)cc1Nc1nccc(-c2cccnc2)n1 [Imatinib] here?
Answer: prevented the development of DMM-induced OA

Question: For COc1cc2nccc(Oc3ccc(NC(=O)C4(C(=O)Nc5ccc(F)cc5)CC4)cc3)c2cc1OC [Cabozatinib], which IC50 [2] is on record?
Answer: < 15 nM

Question: For Oc1cccc(Nc2ncc(F)c(Nc3cccc(O)c3)n2)c1 [R112], which allergic rhinorrhea [4] is on record?
Answer: effectively improved allergic rhinorrhea

Question: And the safety [4]?
Answer: safe

Question: And the efficacy versus placebo [5]?
Answer: lack of efficacy versus placebo

Question: Which IC50 [7] does the source give for CNC(=O)c1cc(Oc2ccc(NC(=O)Nc3ccc(Cl)c(C(F)(F)F)c3)cc2)ccn1 [Sorafenib] here?
Answer: < 100 nM
